Source: ChEMBL document CHEMBL4184193, “Design, synthesis, and opioid activity of arodyn analogs cyclized by ring-closing metathesis involving Tyr(allyl)” (Bioorg Med Chem, 2018)
Each block holds one compound with its values, some of them ahead of it. Where a SMILES comes first, the peptide text is derived from it. [ ]: non-standard residue; d: D form.

Tests used:
[1] = biological target: Kappa-type opioid receptor (Rattus norvegicus) (UniProt P34975); test: Antagonist activity at rat kappa opioid receptor expressed in CHO cell membranes assessed as inhibition of Dyn A-(1-13)NH2-induced [35S]GTPgammaS binding at 10 uM relative to control; format: functional
[2] = biological target: Kappa-type opioid receptor (Rattus norvegicus) (UniProt P34975); test: Antagonist activity at rat kappa opioid receptor expressed in CHO cell membranes assessed as inhibition of Dyn A-(1-13)NH2-induced [35S]GTPgammaS binding by schild analysis; format: functional
[3] = biological target: Delta-type opioid receptor (Rattus norvegicus, UniProt P33533); test: Displacement of [3H]DPDPE from rat delta opioid receptor expressed in CHO cells after 90 mins by scintillation counting analysis; format: cell-based
Delta-type opioid receptor, sequence (P33533 whole entry): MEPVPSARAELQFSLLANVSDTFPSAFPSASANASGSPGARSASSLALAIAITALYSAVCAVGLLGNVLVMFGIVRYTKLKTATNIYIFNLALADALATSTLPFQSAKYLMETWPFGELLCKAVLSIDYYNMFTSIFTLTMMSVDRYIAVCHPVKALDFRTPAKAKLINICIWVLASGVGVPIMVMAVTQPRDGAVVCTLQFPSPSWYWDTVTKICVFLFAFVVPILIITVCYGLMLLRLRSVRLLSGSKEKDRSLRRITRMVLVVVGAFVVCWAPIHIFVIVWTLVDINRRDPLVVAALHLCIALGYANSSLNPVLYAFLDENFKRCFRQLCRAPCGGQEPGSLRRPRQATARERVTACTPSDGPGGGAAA

Kappa-type opioid receptor (Rattus norvegicus), sequence (P34975 whole entry): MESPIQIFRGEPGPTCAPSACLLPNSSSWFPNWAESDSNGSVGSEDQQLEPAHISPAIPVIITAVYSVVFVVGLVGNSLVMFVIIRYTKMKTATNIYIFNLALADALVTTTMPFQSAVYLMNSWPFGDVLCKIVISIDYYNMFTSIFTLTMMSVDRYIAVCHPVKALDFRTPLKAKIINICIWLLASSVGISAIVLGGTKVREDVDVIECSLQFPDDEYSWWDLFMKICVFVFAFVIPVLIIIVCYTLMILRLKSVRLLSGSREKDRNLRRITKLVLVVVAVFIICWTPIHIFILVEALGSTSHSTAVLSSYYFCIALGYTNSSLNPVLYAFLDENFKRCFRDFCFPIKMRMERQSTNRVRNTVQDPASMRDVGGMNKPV

Compound: CC[C@H](C)[C@H](NC(=O)[C@H](CCCNC(=N)N)NC(=O)[C@@H]1C/C=C/COc2ccc(cc2)C[C@H](NC(=O)[C@H](Cc2ccccc2)NC(=O)[C@H](Cc2ccccc2)NC(C)=O)C(=O)N[C@@H](CCCNC(=N)N)C(=O)N1)C(=O)N[C@@H](CCCNC(=N)N)C(=O)N1CCC[C@H]1C(=O)N[C@@H](CCCCN)C(N)=O
inhibition [1]: 3.3%

Compound: CC(=O)N[C@@H](Cc1ccccc1)C(=O)N[C@@H](Cc1ccccc1)C(=O)N[C@@H](Cc1ccccc1)C(=O)N[C@@H](CCCN=C(N)N)C(=O)N[C@@H](CC(C)C)C(=O)N[C@@H](CCCN=C(N)N)C(=O)N[C@@H](CCCN=C(N)N)C(=O)N[C@@H](C)C(=O)N[C@@H](CCCN=C(N)N)C(=O)N1CCC[C@H]1C(=O)N[C@@H](CCCCN)C(N)=O (Ac-FFFRLRRARPK-NH2)
Kb [2]: 17 nM

Ki [3]: > 5000 nM
Compound: CC(=O)N[C@@H](Cc1ccccc1)C(=O)N[C@@H](Cc1ccccc1)C(=O)N[C@@H](Cc1ccccc1)C(=O)N[C@@H](CCCNC(=N)N)C(=O)N[C@@H](CC(C)C)C(=O)N[C@@H](CCCNC(=N)N)C(=O)N[C@@H](CCCNC(=N)N)C(=O)N[C@H](C)C(=O)N[C@@H](CCCNC(=N)N)C(=O)N1CCC[C@H]1C(=O)N[C@@H](CCCCN)C(N)=O (Ac-FFFRLRR[dA]RPK-NH2)
